The test system of test [1] is MCP-1 induced calcium ion influx in THP-1 cells. As to the kind of experiment: MCP-1 Induced Calcium Mobilization in THP-1 Cells. The test is classed as cell-based. As to conditions: Homo sapiens; for IC50: THP-1, THP-1 cells, 0.2 μM MCP-1, FLIPR, read-out: Inhibition of MCP-1 Induced Calcium Ion Influx IC50; for inhibition at 25 µM: THP-1, test concentration of 25 μM, given where an IC50 value was not obtained, read-out: Inhibition of MCP-1 Induced Calcium Ion Influx, percent inhibition. As for the experimental part:
THP-1 cells were plated at a density of 8×10^5 cells/mL (100 μL/well) into poly-D lysine coated clear bottom, black 96 well plates. The cells were loaded with 5 μM fluo-3 for 45 minutes. The fluo-3 washed off and cells were incubated with varying concentrations of test compound for 15 minutes. The change in calcium ion concentration upon addition of 0.2 μM MCP-1 was determined using FLIPR and compared to vehicle.
Table 2 lists IC50 values for inhibition of MCP-1 induced influx of calcium ions.

Test [2] has as its system MCP-1 induced chemotaxis of THP-1 cells. Kind of test: MCP-1 Induced Chemotaxis in THP-1 Cells. The test is classed as cell-based. Particulars: Homo sapiens, MCP-1 0.01 μg/mL, 3 hours at 37° C., read-out: Inhibition of MCP-1 Induced Chemotaxis IC50. How it is done: MCP-1 induced chemotaxis was run in a 24-well chemotaxis chamber. MCP-1 (0.01 μg/mL) was added to the lower chamber and 100 μL of THP-1 cells (1×10^7 cell/mL) was added to the top chamber. Varying concentrations of test compound were added to the top and bottom chambers. Cells were allowed to chemotax for 3 hours at 37° C. and 5% CO2. An aliquot of the cells that had migrated to the bottom chamber was taken and counted then compared to vehicle.
Table 3 lists IC50 values for inhibition of MCP-1 induced chemotaxis.

For a further test, the target named is T1, CCR2 (Homo sapiens, UniProt P41597).
T1 construct: host or cells: THP-1 cells
T1 sequence (P41597 1-360 isoform P41597-2): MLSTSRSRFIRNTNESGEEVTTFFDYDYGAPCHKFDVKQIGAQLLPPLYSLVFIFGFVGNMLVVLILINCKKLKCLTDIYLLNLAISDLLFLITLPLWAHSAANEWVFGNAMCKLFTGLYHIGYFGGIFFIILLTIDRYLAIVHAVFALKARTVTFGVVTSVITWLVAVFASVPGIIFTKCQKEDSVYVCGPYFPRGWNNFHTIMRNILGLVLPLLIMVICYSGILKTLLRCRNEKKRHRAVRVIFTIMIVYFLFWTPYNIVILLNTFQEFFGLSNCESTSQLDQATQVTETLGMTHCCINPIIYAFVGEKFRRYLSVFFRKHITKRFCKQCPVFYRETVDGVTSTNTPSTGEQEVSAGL
Kind of test: MCP-1 Receptor Binding Assay in THP-1 Cells. Particulars: for IC50: THP-1 cells, 0.5 nM 125I labeled MCP-1, 2 hours at 30° C., read-out: Inhibition of MCP-1 Binding IC50; for inhibition at 25 µM: test concentration of 25 μM, given where an IC50 value was not obtained, read-out: Inhibition of MCP-1 Binding, percent inhibition. In short, it runs like this: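 Whole THP-1 cells incubated 2 h at 30° C with 0.5 nM 125I-MCP-1 and varying compound concentrations; bound radioactivity harvested on filters and counted by scintillation. Nonspecific binding with 1 μM cold MCP-1; IC50 for inhibition of binding versus vehicle.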

`COc1ccc(C2CCN(CC(O)C3(O)CCN(C(=O)/C=C/c4ccc(Cl)c(Cl)c4)CC3)CC2)cc1` (stereo not shown) [Compound 1]: the results for the IC50 (in test [1]; in test [2]; on CCR2) were 70 nM, 90 nM and 250 nM, respectively.

In the case of `O=C(Nc1ccc(Cl)c(Cl)c1)N1CCC(C(O)CN2CCC(c3c[nH]c4ccccc34)CC2)CC1` (stereo not shown) [Compound 4, 4-{1-hydroxy-2-[4-(1H-indol-3-yl)-piperidin-1-yl]-ethyl}-piperidine-1-carboxylic acid (3,4-dichloro-phenyl)-amide], the IC50 in test [1] came to 20 nM; in test [2], 4 nM; at CCR2 it was 30 nM.

For `O=C(Nc1cc(F)cc(F)c1)N1CCC(C(O)CN2CCC(c3c[nH]c4ccccc34)CC2)CC1` (stereo not shown) [Compound 5, 4-{1-hydroxy-2-[4-(1H-indol-3-yl)-piperidin-1-yl]-ethyl}-piperidine-1-carboxylic acid (3,5-difluoro-phenyl)-amide], the results for the IC50 (in test [1]; in test [2]; on CCR2) were 80 nM, 120 nM and 160 nM, respectively.

For the compound `O=C(/C=C/c1ccc(Cl)c(Cl)c1)N1CCC(C(O)CN2CCC(c3c[nH]c4ccccc34)CC2)CC1` (stereo not shown) [Compound 6], the figures for the IC50 (in test [1]; in test [2]; at CCR2) were 7 nM, 20 nM and 40 nM, respectively.

In the case of `O=C(/C=C/c1cc(F)cc(F)c1)N1CCC(C(O)CN2CCC(c3c[nH]c4ccccc34)CC2)CC1` (stereo not shown) [Compound 7], the IC50 in test [1] came out at 7 nM; in test [2] it was 30 nM; on CCR2, 30 nM.

In the case of `OC(CN1CCC(c2c[nH]c3ccccc23)CC1)C1CCN(C(=S)Nc2cccc(Br)c2)CC1` (stereo not shown) [Compound 9, 4-{1-hydroxy-2-[4-(1H-indol-3-yl)-piperidin-1-yl]-ethyl}-piperidine-1-carbothioic acid (3-bromo-phenyl)-amide], the IC50 was found to be 120 nM in test [1], 20 nM in test [2] and 50 nM on CCR2.

For `N#Cc1ccc2[nH]cc(C3CCN(CC(O)C4(O)CCN(c5nccc(C(F)(F)F)n5)CC4)CC3)c2c1` (stereo not shown) [Compound 124, 3-(1-{2-hydroxy-2-[4-hydroxy-1-(4-trifluoromethyl-pyrimidin-2-yl)-piperidin-4-yl]-ethyl}-piperidin-4-yl)-1H-indole-5-carbonitrile], the inhibition at 25 µM in test [1] was determined as 43%. In addition, at CCR2, the IC50 stood at 8300 nM.

Consider `O=C(/C=C/c1ccc(F)c(F)c1)N1CCC(O)(C(O)CN2CCC(c3ccc(F)cc3)CC2)CC1` (stereo not shown) [Compound 129], for which the IC50 in test [1] was found to be 8000 nM; at CCR2, 500 nM.

Consider `O=C(/C=C/c1ccc(Cl)c(Cl)c1)N1CCC(O)(C(O)CN2CCC(c3ccc(F)cc3)CC2)CC1` (stereo not shown) [Compound 131], for which the IC50 stood at 380 nM in test [1] and 180 nM on CCR2.

Regarding `O=C(Nc1ccc(F)c(F)c1)N1CCC(O)(C(O)CN2CCC(c3ccc(F)cc3)CC2)CC1` (stereo not shown) [Compound 132, 4-{2-[4-(4-fluoro-phenyl)-piperidin-1-yl]-1-hydroxy-ethyl}-4-hydroxy-piperidine-1-carboxylic acid (3,4-difluoro-phenyl)-amide], the inhibition at 25 µM in test [1] came out at 26%. The IC50 on CCR2 was determined as 2400 nM.

Consider `O=C(Nc1ccc(Cl)c(Cl)c1)N1CCC(O)(C(O)CN2CCC(c3ccc(F)cc3)CC2)CC1` (stereo not shown) [Compound 134, 4-{2-[4-(4-fluoro-phenyl)-piperidin-1-yl]-1-hydroxy-ethyl}-4-hydroxy-piperidine-1-carboxylic acid (3,4-dichloro-phenyl)-amide], for which the inhibition at 25 µM in test [1] turned out to be 52%. For the same compound, the IC50 on CCR2 stood at 1900 nM.

Consider `OC(CN1CCC(c2ccc(F)cc2)CC1)C1(O)CCN(C(=S)Nc2ccc(Cl)c(Cl)c2)CC1` (stereo not shown) [Compound 135, 4-{2-[4-(4-fluoro-phenyl)-piperidin-1-yl]-1-hydroxy-ethyl}-4-hydroxy-piperidine-1-carbothioic acid (3,4-dichloro-phenyl)-amide], for which the IC50 in test [1] was determined as 9200 nM; on CCR2, 730 nM.

Take `O=C(/C=C/c1ccc(Cl)c(Cl)c1)N1CCC(O)(C(O)CN2CCC(c3ccc(C(F)(F)F)cc3)CC2)CC1` (stereo not shown) [Compound 139]: the results for the IC50 (in test [1]; on CCR2) were 310 nM and 920 nM, respectively.

Regarding `O=C(/C=C/c1cc(F)c(F)c(F)c1)N1CCC(O)(C(O)CN2CCC(O)(c3ccc(F)cc3)CC2)CC1` (stereo not shown) [Compound 152], the inhibition at 25 µM in test [1] was 43%. Moreover, the IC50 on CCR2 was determined as 3100 nM.

As for `O=C(/C=C/c1ccc(F)c(F)c1)N1CCC(O)(C(O)CN2CCC(O)(c3ccc(F)cc3)CC2)CC1` (stereo not shown) [Compound 153], the inhibition at 25 µM in test [1] came to 12%. In addition, the IC50 on CCR2 was found to be 730 nM.

Turning to `O=C(/C=C/c1ccc(Cl)c(Cl)c1)N1CCC(O)(C(O)CN2CCC(c3c[nH]c4ccc(F)cc34)CC2)CC1` (stereo not shown) [Compound 158], the IC50 in test [1] came to 2100 nM; on CCR2 it was 350 nM.

In the case of `O=C(/C=C/c1ccc(F)c(Br)c1)N1CCC(O)(C(O)CN2CCC(c3c[nH]c4ccc(F)cc34)CC2)CC1` (stereo not shown) [Compound 159], the IC50 in test [1] was determined as 1500 nM; at CCR2, 730 nM.

On to `O=C(CCc1ccc(Cl)cc1)N1CCC(O)(C(O)CN2CCC(c3c[nH]c4ccc(F)cc34)CC2)CC1` (stereo not shown) [Compound 160, 3-(4-chloro-phenyl)-1-(4-{2-[4-(5-fluoro-1H-indol-3-yl)-piperidin-1-yl]-1-hydroxy-ethyl}-4-hydroxy-piperidine-1-yl)-propan-1-one], for which the values for the IC50 (in test [1]; at CCR2) were 3600 nM and 840 nM, respectively.

As to `O=C(/C=C/c1ccc(Cl)c(Cl)c1)N1CCC(O)(C(O)CN2CCC(c3c[nH]c4ccc(N5CCOCC5)cc34)CC2)CC1` (stereo not shown) [Compound 169], the 50% inhibitory concentration (IC50) in test [1] was determined as 5400 nM; on CCR2, 790 nM.

For the compound `O=C(/C=C/c1ccc(Cl)cc1)N1CCC(O)(C(O)CN2CCC(c3c[nH]c4ccc(N5CCOCC5)cc34)CC2)CC1` (stereo not shown) [Compound 170], the values for the IC50 (in test [1]; at CCR2) were 17200 nM and 4400 nM, respectively.

For the compound `O=C(/C=C/c1ccc(F)cc1)N1CCC(O)(C(O)CN2CCC(c3c[nH]c4ccc(N5CCOCC5)cc34)CC2)CC1` (stereo not shown) [Compound 171], the inhibition at 25 µM in test [1] came out at 22%. On CCR2, the IC50 came out at 12800 nM.

For `O=C(/C=C/c1ccc(F)c(F)c1)N1CCC(O)(C(O)CN2CCC(c3c[nH]c4ccc(N5CCOCC5)cc34)CC2)CC1` (stereo not shown) [Compound 172], the inhibition at 25 µM in test [1] came to 46%. Besides, the IC50 on CCR2 worked out at 3700 nM.

For the compound `O=C(/C=C/c1ccc(F)c(Br)c1)N1CCC(O)(C(O)CN2CCC(c3c[nH]c4ccc(N5CCOCC5)cc34)CC2)CC1` (stereo not shown) [Compound 173], the results for the IC50 (in test [1]; on CCR2) were 1200 nM and 910 nM, respectively.

Turning to `Cc1cccc(/C=C/C(=O)N2CCC(O)(C(O)CN3CCC(c4c[nH]c5ccc(N6CCOCC6)cc45)CC3)CC2)c1` (stereo not shown) [Compound 174], the inhibition at 25 µM in test [1] was 44%. The IC50 on CCR2 turned out to be 3200 nM.

Regarding `O=C(/C=C/c1cc(F)c(F)cc1F)N1CCC(O)(C(O)CN2CCC(c3c[nH]c4ccc(N5CCOCC5)cc34)CC2)CC1` (stereo not shown) [Compound 175], the inhibition at 25 µM in test [1] came to 24%; on CCR2 it was 70%.

With `COc1cccc(/C=C/C(=O)N2CCC(O)(C(O)CN3CCC(c4c[nH]c5ccc(N6CCOCC6)cc45)CC3)CC2)c1` (stereo not shown) [Compound 177], the inhibition at 25 µM in test [1] amounted to 27%; at CCR2, 53%.

With `O=C(/C=C/c1ccsc1)N1CCC(O)(C(O)CN2CCC(c3c[nH]c4ccc(N5CCOCC5)cc34)CC2)CC1` (stereo not shown) [Compound 178], the inhibition at 25 µM in test [1] amounted to 2%; on CCR2 it was 59%.

As to `OC(CN1CCC(c2c[nH]c3ccc(N4CCOCC4)cc23)CC1)C1(O)CCN(C(=S)Nc2cc(Cl)cc(Cl)c2)CC1` (stereo not shown) [Compound 182, 4-hydroxy-4-{1-hydroxy-2-[4-(5-morpholin-4-yl-1H-indol-3-yl)-piperidin-1-yl]-ethyl}-piperidine-1-carbothioic acid (3,5-dichloro-phenyl)-amide], the IC50 in test [1] was 5400 nM; at CCR2, 4900 nM.

For the compound `CC(=O)Nc1ccc2[nH]cc(C3CCN(CC(O)C4CCN(C(=O)OCc5ccccc5)CC4)CC3)c2c1` (stereo not shown) [Compound 184, 4-{2-[4-(5-acetylamino-1H-indol-3-yl)-piperidin-1-yl]-1-hydroxy-ethyl}-piperidine-1-carboxylic acid benzyl ester], the inhibition at 25 µM was 13% in test [1] and 61% on CCR2.

As usually defined, the IC50 is the point on the concentration scale where inhibition reaches its midpoint. As a reminder, the inhibition is the change of the read-out against control, counted positive when it falls.

These data come from patent US20070197590A1, “SUBSTITUTED DIPIPERIDINE CCR2 ANTAGONISTS” (priority 2006, published 2007).
